This passage reports increase of temperature and pyrogenic effect results from US4220637A (Agence Nationale de Valorisation de la Recherche, priority 1976, dated 1980).

The structures appear in SMILES notation.

For the data set, the system named is rabbits. The data set can be described thus: pyrogenic effect test on rabbits (Pharmacopee Francaise, 9th edition, II-235). The data set is classed as in vivo.

Consider `CC(=O)N[C@H]1C(O)O[C@H](CO)[C@@H](O)[C@@H]1O[C@H](C)C(=O)N[C@@H](C)C(=O)N[C@H](CCC(N)=O)C(N)=O` (stereo partly drawn) [Mur-NAc-L-Ala-D-Glu(NH2)--NH2, diamide of the 2-(2-acetamido-2-deoxy-3-O-D-glucopyranosyl)-D-propionyl-L-alanyl-D-glutamic acid], for which the increase of temperature entry (2 mg/kg, sub-cutaneously and intravenously) was “did not induce any increase of temperature”. Under “Pharmacopee Francaise protocol”, the pyrogenic effect result is on record as “fully devoid of any pyrogenic effect”.
